Experimental data as given in patent US9642803B2, “Nano-sized particles comprising multi-headed amphiphiles for targeted drug delivery” (Ben-Gurion University Of The Negev Research And Development …, priority 2009, dated 2017).

Key:
[1] = Percentage of encapsulation in bolaamphiphile vesicles; assay type: physicochemical
[2] = tested on: mice; assay: Hot plate test (analgesic effect) in mice; assay type: in vivo; conditions: for response time: nanoparticles by ethanol injection, encapsulated groups pre-injected with pyridostigmine 0.5 mg/kg; for analgesic effect: i.v. 20 mg/Kg
Method: The response of mice to a transient painful stimulus was measured following administration of the test material (either i.v. into the tail vein or per os by gavages). The analgesic effect was determined by placing the mouse on a hot plate (55° C., IITC model 39) and recording the time for withdrawing/licking the hind limb (hot plate test). To prevent tissue damage and suffering of the animal, the experiment was terminated after 20 sec if no response was evoked. The response latencies were recorded and either used by themselves for comparison or normalized as percent of maximal possible effect (MPE) using the equation: […]
where: RT—is the response latency after treatment; RT0—is the response latency of a mouse without treatment and RTmax—is the maximal response time allowed (20 sec).
Derivative 4-nanoparticles comprising leu-enkephalin, prepared as described in Example 9 by FHS (film hydration flowed by sonication), were administered to mice and their ability to exert an analgesic effect was measured by the hot plate test described in Methods.
Nanoparticles were made from 10 mg/ml Derivative 4 with cholesterol and cholesteryl hemisuccinate as additives (2:1:1) and 10% molar ratio chitosan (CS)-vernolic acid conjugate in presence of 2.5 mg/ml leu-enkephalin. In these nanoparticles, CS-vernolic acid conjugate serves as a pendant on the nanoparticles/vesicles in order to enhance penetrability.
Nanoparticles were injected into the tail vein at a dose of 20 mg/kg bolaamphiphile, which corresponds to 5 mg/kg leu-enkephaime. Empty nanoparticles and free leu-enkephalin injected in a dose of 20 mg/kg, were used as a negative control and morphine at a dose of 5 mg/kg was used as a positive control. Mice were pretreated with 0.5 mg/kg pyridostigmine 15 min prior to the injection of the nanoparticles. Pyridostigmine inhibits the activity of acetylcholine esterase and thus prevents hydrolysis of the acetyl choline headgroups in the periphery.
Analgesic effect studies (hot plate test) in mice were carried out using nanoparticles comprising Derivative 1 or Derivative 4 and prepare by the ethanol injection technique described in Example 10. The hot plate test was preformed as described in Example 19. All mice treated with encapsulated leu-enkephalin, were pre-injected with the periphery acetylcholine esterase inhibitor pyridostigmine (0.5 mg/kg).
The efficacy of delivering leu-enkephalin in various nanoparticles in oral formulations versus i.v. injectable formulations were tested (a hot plate test of Example 20). Thus, formulations comprising leu-enkephalin encapsulated in the following nanoparticles were prepared: (a) nanoparticles comprising Derivative 4, cholesterol, cholesteryl hemisuccinate and vernolyl-chitosan prepared according to Example 13(i); (b) nanoparticles comprising distearyl phosphatidyl choline (DSPC) as the amphiphilic compound, cholesterol, prepared as described in Example 13(iii).
Formulations comprising […] leu-enkephalin loaded nanoparticles were administered by gavages at a dose of 100 mg/kg bolaamphiphile, which corresponds to 25 mg/kg leu-enkephalin. The same dose of free leu-enkephalin was administered by gavages as a control. The results were compared to liposomes made from 20 mg/ml DSPC in presence of 5 mg/ml leu-enkephalin and administered at a dose of 200 mg/kg phospholipid, which corresponds to 50 mg/kg leu-enkephalin. The mice were preinjected with pyridostigmine as in example 20. The results, are shown in FIG. 2, represent the analgesic effect as percent of maximal possible response (MPE).
In order to assess an optimized delivery and targeted release efficiencies, the analgesic effect of formulations containing nanoparticles comprising Derivative 4, cholesterol, cholesteryl hemisuccinate and vernoyl chitosan as additives (chitosan nanoparticles), and various amounts of leu-enkephalin was studied by the hot plate test. Nanoparticles were prepared as described in Example 15. […]

5(6)-Carboxyfluorescein [CF]
percentage of CF encapsulation ([1]; Derivative 4/cholesterol/cholesteryl hemisuccinate/PEG(201) or PEG(202) 100:25:25:10 nanoparticles, PBS pH 8.0): 20%

[5-Leucine] Enkephalin [free leu-enkephalin]
response time ([2]; 10 minutes after i.v. injection): 3 s
response time ([2]; 30 minutes after i.v. injection): 2 s
response time ([2]; 60 minutes after i.v. injection): 2 s
analgesic effect ([2]; mice pretreated with pyridostigmine, Example 27): no significant analgesic effect
analgesic effect ([2]; Example 28): no significant analgesic effect
percentage of encapsulation at pH above pI relative to pH below pI ([1]; Derivative 4/cholesterol/cholesteryl hemisuccinate nanoparticles, TBS pH 8.5): 2 to 4 times

CN(C)C(=O)Oc1ccc[n+](C)c1.[Br-] [pyridostigmine, 3-(Dimethylamino-carbonyloxy)-1-methylpyridinium bromide]
analgesic response of pyridostigmine by itself ([2]; 0.5 mg/kg): does not evoke an analgesic response
